This passage reports inhibition and Ki results from ChEMBL document CHEMBL1821607, “N-Arylalkyl-2-azaadamantanes as cage-expanded polycarbocyclic sigma (σ) receptor ligands” (Bioorg Med Chem Lett, 2011).

The structures appear in SMILES notation. Bounds are passed on as bounds.

The target in experiment [1] is T1, 5-hydroxytryptamine receptor 3A (Homo sapiens) (UniProt P46098).
T1 sequence (whole entry): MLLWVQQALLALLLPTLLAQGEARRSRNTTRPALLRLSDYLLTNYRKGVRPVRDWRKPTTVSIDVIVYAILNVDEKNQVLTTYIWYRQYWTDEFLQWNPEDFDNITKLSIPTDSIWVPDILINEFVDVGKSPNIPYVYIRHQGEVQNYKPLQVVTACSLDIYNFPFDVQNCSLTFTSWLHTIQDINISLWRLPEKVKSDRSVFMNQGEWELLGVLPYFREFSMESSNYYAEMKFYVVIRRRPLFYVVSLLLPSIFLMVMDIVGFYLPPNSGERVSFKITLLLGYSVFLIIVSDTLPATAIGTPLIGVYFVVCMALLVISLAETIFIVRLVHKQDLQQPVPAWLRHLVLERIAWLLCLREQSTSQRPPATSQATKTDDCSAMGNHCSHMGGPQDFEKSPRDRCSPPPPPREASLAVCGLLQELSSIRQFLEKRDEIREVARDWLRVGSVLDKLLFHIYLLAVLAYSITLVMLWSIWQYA
The experiment can be described thus: Inhibition of 5-HT3 receptor at 10 uM by NIMH PDSP.

The target in experiment [2] is T2, 5-hydroxytryptamine receptor 1A (Homo sapiens) (UniProt P08908).
T2 sequence (whole entry): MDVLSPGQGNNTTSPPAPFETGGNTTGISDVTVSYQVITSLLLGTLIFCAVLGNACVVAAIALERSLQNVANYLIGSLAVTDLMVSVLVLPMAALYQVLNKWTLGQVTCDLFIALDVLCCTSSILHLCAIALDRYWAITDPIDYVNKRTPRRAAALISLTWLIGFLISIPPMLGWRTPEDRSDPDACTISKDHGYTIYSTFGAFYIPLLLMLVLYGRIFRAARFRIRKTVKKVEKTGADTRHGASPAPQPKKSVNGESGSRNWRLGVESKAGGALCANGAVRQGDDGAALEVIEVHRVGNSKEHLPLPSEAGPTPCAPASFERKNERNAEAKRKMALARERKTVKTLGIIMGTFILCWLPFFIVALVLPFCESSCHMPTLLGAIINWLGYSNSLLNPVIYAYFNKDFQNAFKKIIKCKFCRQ
As to the kind of experiment: Inhibition of 5-HT1A receptor at 10 uM by NIMH PDSP.

The species named for the next experiment is Rattus norvegicus. The experiment can be described thus: Inhibition of BZP receptor in rat brain at 10 uM by NIMH PDSP. It is filed as tissue-based.
For experiment [3], the target named is 5-hydroxytryptamine receptor 2A (Homo sapiens) (UniProt P28223). As to the kind of experiment: Inhibition of 5-HT2A receptor at 10 uM by NIMH PDSP.
5-hydroxytryptamine receptor 2A (Homo sapiens), sequence (P28223 whole entry): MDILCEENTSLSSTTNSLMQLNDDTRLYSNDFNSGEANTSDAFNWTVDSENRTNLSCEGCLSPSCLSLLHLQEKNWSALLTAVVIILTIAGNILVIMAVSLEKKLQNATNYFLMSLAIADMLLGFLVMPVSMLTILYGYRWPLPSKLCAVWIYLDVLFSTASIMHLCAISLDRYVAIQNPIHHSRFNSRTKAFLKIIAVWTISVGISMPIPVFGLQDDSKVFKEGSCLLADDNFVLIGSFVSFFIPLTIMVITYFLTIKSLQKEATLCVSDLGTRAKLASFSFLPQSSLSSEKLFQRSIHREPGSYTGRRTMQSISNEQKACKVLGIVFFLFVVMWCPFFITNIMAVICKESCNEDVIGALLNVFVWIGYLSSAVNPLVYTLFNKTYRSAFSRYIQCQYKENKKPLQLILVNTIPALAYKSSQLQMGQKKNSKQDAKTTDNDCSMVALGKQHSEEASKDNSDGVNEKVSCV
Experiment [4] is described as follows: Displacement of [3H]DTG from sigma 2 receptor in rat liver homogenates in presence of sigma-1 receptor blocker (+)-pentazocine after 120 mins by liquid scintillation counting. It counts as tissue-based. Background: Displacement assays read how much labelled ligand stays bound in the presence of the test substance.
Experiment [5] deals with Mu-type opioid receptor (Homo sapiens) (UniProt P35372). The experiment can be described thus: Inhibition of mu opioid receptor at 10 uM by NIMH PDSP.
Mu-type opioid receptor (Homo sapiens), sequence (P35372 whole entry): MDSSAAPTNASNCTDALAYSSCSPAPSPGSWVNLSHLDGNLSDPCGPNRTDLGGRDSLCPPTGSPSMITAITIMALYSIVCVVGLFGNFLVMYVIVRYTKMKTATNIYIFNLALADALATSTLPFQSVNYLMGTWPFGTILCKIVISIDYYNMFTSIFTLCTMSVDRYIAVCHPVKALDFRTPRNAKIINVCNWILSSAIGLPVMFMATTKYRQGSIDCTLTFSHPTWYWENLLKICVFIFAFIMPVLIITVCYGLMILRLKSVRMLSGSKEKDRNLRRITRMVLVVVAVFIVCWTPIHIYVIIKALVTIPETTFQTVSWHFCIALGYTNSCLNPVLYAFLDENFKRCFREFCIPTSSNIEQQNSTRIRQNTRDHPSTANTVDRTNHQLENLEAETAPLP
Experiment [6] deals with T3, Alpha-1D adrenergic receptor (Homo sapiens) (UniProt P25100).
T3 sequence (whole entry): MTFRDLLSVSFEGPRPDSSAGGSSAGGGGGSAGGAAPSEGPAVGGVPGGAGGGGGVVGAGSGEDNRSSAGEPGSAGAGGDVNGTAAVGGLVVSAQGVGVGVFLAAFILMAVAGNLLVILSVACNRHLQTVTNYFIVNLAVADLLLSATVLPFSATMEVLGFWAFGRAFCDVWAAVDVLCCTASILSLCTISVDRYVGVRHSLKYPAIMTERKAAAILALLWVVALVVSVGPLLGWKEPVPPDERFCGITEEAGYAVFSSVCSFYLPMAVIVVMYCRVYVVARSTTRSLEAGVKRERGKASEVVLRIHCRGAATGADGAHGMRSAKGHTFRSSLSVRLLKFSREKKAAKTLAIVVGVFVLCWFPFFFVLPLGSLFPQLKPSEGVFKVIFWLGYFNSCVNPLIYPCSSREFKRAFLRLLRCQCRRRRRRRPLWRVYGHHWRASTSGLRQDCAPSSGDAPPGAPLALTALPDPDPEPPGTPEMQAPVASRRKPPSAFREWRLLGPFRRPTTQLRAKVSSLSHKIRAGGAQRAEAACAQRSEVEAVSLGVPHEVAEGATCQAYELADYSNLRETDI
As to the kind of experiment: Inhibition of alpha-1D adrenergic receptor at 10 uM by NIMH PDSP.

Experiment [7] deals with Sodium-dependent serotonin transporter (Homo sapiens) (UniProt P31645). The experiment can be described thus: Inhibition of SERT at 10 uM by NIMH PDSP.
Sodium-dependent serotonin transporter (Homo sapiens), sequence (P31645 whole entry, looked up): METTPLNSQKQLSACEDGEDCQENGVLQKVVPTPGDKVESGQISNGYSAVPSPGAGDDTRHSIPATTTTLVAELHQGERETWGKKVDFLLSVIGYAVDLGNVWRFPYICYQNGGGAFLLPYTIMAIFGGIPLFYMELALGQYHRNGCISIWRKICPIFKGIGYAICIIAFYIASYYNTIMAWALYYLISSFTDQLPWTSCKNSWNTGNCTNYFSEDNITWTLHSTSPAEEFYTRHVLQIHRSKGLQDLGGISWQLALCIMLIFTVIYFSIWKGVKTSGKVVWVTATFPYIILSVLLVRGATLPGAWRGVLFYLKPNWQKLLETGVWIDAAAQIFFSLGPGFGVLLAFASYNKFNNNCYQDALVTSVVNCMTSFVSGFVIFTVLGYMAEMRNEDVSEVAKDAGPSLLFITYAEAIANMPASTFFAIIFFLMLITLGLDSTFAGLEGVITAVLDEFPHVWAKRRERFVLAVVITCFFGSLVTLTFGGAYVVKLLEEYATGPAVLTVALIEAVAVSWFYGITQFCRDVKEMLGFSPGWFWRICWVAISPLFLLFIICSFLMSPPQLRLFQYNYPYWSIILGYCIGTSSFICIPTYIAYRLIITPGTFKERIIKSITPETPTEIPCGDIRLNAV
In experiment [8] the target is T4, Alpha-1B adrenergic receptor (Homo sapiens) (UniProt P35368).
T4 sequence (whole entry): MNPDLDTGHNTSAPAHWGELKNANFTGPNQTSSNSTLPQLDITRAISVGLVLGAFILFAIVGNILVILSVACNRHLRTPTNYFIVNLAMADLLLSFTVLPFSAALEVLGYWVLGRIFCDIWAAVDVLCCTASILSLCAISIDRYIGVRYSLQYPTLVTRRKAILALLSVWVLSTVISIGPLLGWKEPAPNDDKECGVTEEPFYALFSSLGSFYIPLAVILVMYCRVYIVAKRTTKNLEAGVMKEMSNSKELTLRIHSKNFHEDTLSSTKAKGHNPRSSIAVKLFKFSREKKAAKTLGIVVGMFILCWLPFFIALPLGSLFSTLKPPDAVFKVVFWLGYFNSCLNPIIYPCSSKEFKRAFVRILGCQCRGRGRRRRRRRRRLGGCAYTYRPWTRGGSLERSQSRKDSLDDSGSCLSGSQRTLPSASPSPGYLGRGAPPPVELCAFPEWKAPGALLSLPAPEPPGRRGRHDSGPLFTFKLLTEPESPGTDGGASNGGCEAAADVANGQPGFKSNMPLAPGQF
The experiment can be described thus: Inhibition of alpha-1B adrenergic receptor at 10 uM by NIMH PDSP.

Experiment [9] deals with 5-hydroxytryptamine receptor 7 (Homo sapiens) (UniProt P34969). As to the kind of experiment: Inhibition of 5-HT7 receptor at 10 uM by NIMH PDSP.
5-hydroxytryptamine receptor 7 (Homo sapiens), sequence (P34969 whole entry): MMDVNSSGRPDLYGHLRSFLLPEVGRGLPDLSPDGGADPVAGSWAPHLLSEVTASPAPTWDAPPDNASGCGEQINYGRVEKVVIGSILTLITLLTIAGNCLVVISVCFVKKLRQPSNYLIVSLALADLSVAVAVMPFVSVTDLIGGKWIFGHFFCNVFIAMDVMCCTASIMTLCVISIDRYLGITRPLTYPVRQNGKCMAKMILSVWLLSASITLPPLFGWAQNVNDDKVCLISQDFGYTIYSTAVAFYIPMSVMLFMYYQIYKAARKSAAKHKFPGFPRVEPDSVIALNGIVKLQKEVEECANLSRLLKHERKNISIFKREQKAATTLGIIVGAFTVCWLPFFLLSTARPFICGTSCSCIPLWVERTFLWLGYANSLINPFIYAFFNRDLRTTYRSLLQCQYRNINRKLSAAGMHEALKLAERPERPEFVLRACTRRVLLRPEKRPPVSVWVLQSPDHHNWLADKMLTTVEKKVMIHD
Experiment [10] concerns the target D(3) dopamine receptor (Homo sapiens) (UniProt P35462). The experiment can be described thus: Inhibition of D3 dopamine receptor at 10 uM by NIMH PDSP.
Experiment [11] has as its target 5-hydroxytryptamine receptor 1E (Homo sapiens) (UniProt P28566). The experiment can be described thus: Inhibition of 5-HT1E receptor at 10 uM by NIMH PDSP.

D(3) dopamine receptor (Homo sapiens), sequence (P35462 whole entry): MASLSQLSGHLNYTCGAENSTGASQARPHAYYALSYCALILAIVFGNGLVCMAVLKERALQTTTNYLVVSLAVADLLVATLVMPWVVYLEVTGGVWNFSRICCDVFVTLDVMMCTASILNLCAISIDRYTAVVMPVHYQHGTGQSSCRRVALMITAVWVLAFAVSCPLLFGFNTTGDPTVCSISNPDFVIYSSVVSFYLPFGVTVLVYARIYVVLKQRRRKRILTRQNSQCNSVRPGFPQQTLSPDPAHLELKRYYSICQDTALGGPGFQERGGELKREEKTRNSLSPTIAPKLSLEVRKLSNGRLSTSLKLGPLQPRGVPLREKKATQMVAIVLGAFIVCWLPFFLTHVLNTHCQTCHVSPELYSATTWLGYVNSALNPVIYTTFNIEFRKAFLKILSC
5-hydroxytryptamine receptor 1E (Homo sapiens), sequence (P28566 whole entry): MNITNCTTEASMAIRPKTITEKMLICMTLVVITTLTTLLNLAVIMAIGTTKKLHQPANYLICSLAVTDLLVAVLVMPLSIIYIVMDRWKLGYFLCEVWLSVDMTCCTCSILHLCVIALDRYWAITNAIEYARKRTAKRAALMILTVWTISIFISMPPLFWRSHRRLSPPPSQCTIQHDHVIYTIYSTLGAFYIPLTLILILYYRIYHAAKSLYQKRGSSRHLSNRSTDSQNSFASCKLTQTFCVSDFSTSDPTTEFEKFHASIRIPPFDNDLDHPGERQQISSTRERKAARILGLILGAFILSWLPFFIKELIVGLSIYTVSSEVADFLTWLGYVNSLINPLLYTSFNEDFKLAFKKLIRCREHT

As for `c1ccc(CN2C3CC4CC(C3)CC2C4)cc1`, the inhibition (in experiment [1]; in experiment [2]; in the experiment listed under Rattus norvegicus; in [3]; in experiment [5]; in experiment [6]) was < 50% throughout. Further, the inhibition in experiment [7], in experiment [8], in experiment [9], in experiment [10] and in experiment [11] was < 50% in each case. Also, the Ki in experiment [4] is 95 nM.
As for `OC12CC3CC(CC(C3)N1Cc1cccc(F)c1)C2` (racemic), the inhibition (in experiment [1]; in experiment [2]; in the experiment filed under Rattus norvegicus; in experiment [3]; in experiment [5]; in [6]) was < 50% each time. Moreover, the inhibition in experiment [7], in [8], in experiment [9], in experiment [10] and in experiment [11] was < 50% throughout. Besides, the Ki in experiment [4] was 705 nM.
Consider `OC12CC3CC(CC(C3)N1Cc1ccccc1)C2` (racemic), for which the inhibition (in experiment [1]; in experiment [2]; in the experiment filed under Rattus norvegicus; in experiment [3]; in experiment [5]; in [6]) was < 50% throughout. The inhibition in experiment [7], in [8], in experiment [9], in experiment [10] and in [11] was < 50% throughout. Further, the Ki in experiment [4] amounted to 1020 nM.
Turning to `Fc1cccc(CN2C3CC4CC(C3)CC2C4)c1`, the inhibition (in experiment [1]; in experiment [2]; in the experiment filed under Rattus norvegicus; in [3]; in experiment [5]; in experiment [6]) was < 50% in each case. In addition, the inhibition in experiment [7], in [8], in [9], in experiment [10] and in experiment [11] was < 50% throughout. Further, the Ki in [4] is 132 nM.

A word on the inhibition: it is the share of the control response that was lost under treatment. High values mean a response far below the control, low ones a response near the control. Usually Ki stands for a dissociation constant, usually derived from enzyme kinetics or from competition with a known ligand.
